From patent US11598051B2, “Method for manufacturing a fibrous web” (Kemira Oyj, priority 2017, dated 2023)

Assays:
aerobic bacterial spores [1] = experiment: Example 1 laboratory broke test: aerobic bacterial spores by agar plate cultivation; format: cell-based, bacteria; details: for Bacterial spores: 10 mg/l as total active chlorine, +45° C.
Protocol: (§1) This laboratory test compared efficacy of two oxidizing biocides, namely free active chlorine and stabilized active chlorine, in killing of vegetative bacterial cells and in controlling of bacterial spore formation. Test was performed with authentic bacterial population of a broke sample taken from couch pit of a board machine making 3-ply food-packaging board. Broke sample was divided in equal proportions. Two reference samples were stored as such, the “free active chlorine” sample was treated with sodium hypochlorite, and the “stabilized active chlorine” sample was treated with sodium hypochlorite stabilized by 5,5-dimethylhydantoin (mixed in 1:1 molar ratio to form monochloro-5,5-dimethylhydantoin, MCDMH). Both forms of active chlorine were dosed at 10 ppm (=mg/l as total active chlorine Cl2). Broke samples were stored at +45° C. without mixing. Total aerobic bacteria and aerobic bacterial spores were quantified by using conventional agar plate cultivation methods (Plate Count Agar, incubation at +37° C. for 2 days) at the beginning of the test (untreated reference samples) and after 1 and 2 days of contact time. Broke pH and Redox (mV) values were also monitored.

[2] = system: Total aerobic bacteria (authentic bacterial population of a broke sample); experiment: Example 1 laboratory broke test: total aerobic bacteria by agar plate cultivation; format: cell-based; details: for Total aerobic bacteria: 10 mg/l as total active chlorine, +45° C.
Protocol: as §1

aerobic bacterial spores [3] = experiment: Example 3 board machine biocide programs: aerobic bacterial spores from process locations; parameters: species or system bacteria; details: for ΔSpore content within the broke system: difference between inlet and outlet
From the text: (§2) This example compares technical performance of two different biocide programs in the broke system of a 3-ply board machine producing food-packaging board. Broke system is a part of the wet-end of the board making process. This board machine has set a hygiene target for the final board that it should contain aerobic bacterial spores less than 1000 CFU, and preferably less than 250 CFU, per gram of dry board.
(§3) In this experiment, for the first period (Days 1-10) the machine was running a biocide program consisting of stabilized active chlorine (MCDMH) and glutaraldehyde. For the second period, the machine was running chlorine dioxide, a non-stabilized oxidizer, as the biocide. It was running for 10 days starting from a shutdown (Days 15-25). Third period (Days 26-47) was run with the same MCDMH and glutaraldehyde program as the first period. During this experiment technical performance of the two different biocide programs was monitored at selected dates by several means: on-line Redox monitoring system collecting Redox values at every 10 minutes (results are shown as daily average mV values); measuring aerobic spore content of the final board samples; and by measuring aerobic bacterial spore quantities from different process locations by using agar plate cultivation methods (pasteurization at 82° C. for 20 min, followed by cultivation on Plate Count Agar for 2 days at +37° C.).

aerobic spores = experiment: Example 2 laboratory broke storage test: aerobic spore content by agar plate cultivation; format: cell-based, bacteria
Protocol: (§4) This laboratory test was performed with broke sample taken from an alkaline board machine producing 3-ply food-packaging board and the sample included the mill's authentic bacterial population in it. The sample was divided in two different containers, one stored as such and the second one amended with biocide, 50 mg/l of glutaraldehyde as active agent. Containers were closed and stored at +45° C. without mixing i.e. under conditions that simulate situation in broke storage tower during a machine shutdown. Total aerobic bacteria and aerobic spore contents were determined by using conventional agar plate cultivation methods (plate count agar, 2 days incubation at +37° C.) at the beginning of the test and after 3 days of storage time, along with pH and redox measurements.

[4] = system: Total aerobic bacteria (mill's authentic bacterial population); experiment: Example 2 laboratory broke storage test: total aerobic bacteria by agar plate cultivation; format: cell-based
Protocol: as §4

aerobic bacterial spores [5] = experiment: Example 3 board machine biocide programs: aerobic spore content of final board; parameters: species or system bacteria
From the text: as §2, §3

[6] = broke, 50 mg/l as active agent, +45° C., closed, after 3 days storage time
[7] = Day 15, second period (Days 15-25)
[8] = Day 19, second period (Days 15-25)
[9] = Day 25, second period (Days 15-25)

CC1(C)NC(=O)N(Cl)C1=O [MCDMH, monochloro-5,5-dimethylhydantoin]
spore formation in the broke (aerobic bacterial spores [1]; 10 mg/l as active chlorine, 2 days experiment): did not cause any new spore formation | spore counts (aerobic bacterial spores [1]; 10 mg/l as active chlorine, during the 2 days experiment): 30-60 CPU/ml | Bacterial spores (aerobic bacterial spores [1]; 1 days storage time): 30 CFU/ml | Bacterial spores (aerobic bacterial spores [1]; 2 days storage time): 60 CFU/ml | stronger reduction of total aerobic bacteria content compared to free chlorine ([2]; 10 mg/l as active chlorine, after 1 day of storage): 1 log unit | Total aerobic bacteria ([2]; broke, 1 days storage time): 6×10^4 CFU/ml | Total aerobic bacteria ([2]; broke, 2 days storage time): 2 × 10^7 CFU/ml | spores in incoming pulp (aerobic bacterial spores [3]; first period (Days 1-10)): 30-80 CFU/ml | spores in pulp transportation water (aerobic bacterial spores [3]; first period (Days 1-10)): 15 CFU/ml

[Na+].[O-]Cl [Na-hypochlorite, sodium hypochlorite]
Bacterial spores (aerobic bacterial spores [1]; 1 days storage time): 60 CFU/ml | Bacterial spores (aerobic bacterial spores [1]; 2 days storage time): 670 CFU/ml | increase in the quantity of aerobic spores (aerobic bacterial spores [1]; 10 ppm, 1 day to 2 days storage (60 to 670 CFU/ml)): 10 fold | Total aerobic bacteria ([2]; broke, 1 days storage time): 4 × 10^5 CFU/ml | Total aerobic bacteria ([2]; broke, 2 days storage time): 2 × 10^7 CFU/ml | killing effect ([2]; broke, 10 ppm dosing level): did not demonstrate any longer-term killing effect | total aerobic bacteria content ([2]; broke, 10 ppm, after 1 day of storage): 4×10^5 CPU/ml

O=CCCCC=O [glutaraldehyde]
spore formation in the broke sample (aerobic spores; 50 mg/l, 3 days of storage): not triggering any spore formation | Bacterial spores (aerobic spores; [6]): 80 CFU/ml | killing effect ([4]; 50 mg/l, 3 days of storage): did not have a long-lasting killing effect | total aerobic bacteria relative to the untreated reference ([4]; 50 mg/l, after 3 days of storage): 40% | Total aerobic bacteria [4, 6]: 2×10^7 CFU/ml

[O][Cl+][O-] [chlorine dioxide]
Aerobic Bacterial Spores in process, High consistency (4-6 w/w-%) broke tower (aerobic bacterial spores [3]; [7]): 440 CFU/ml | Aerobic Bacterial Spores in process, Incoming Pulp (aerobic bacterial spores [3]; [7]): 20 CFU/ml | Aerobic Bacterial Spores in process, Low consistency (1-4 w/w-%) broke tower (aerobic bacterial spores [3]; [7]): 250 CFU/ml | ΔSpore content within the broke system (aerobic bacterial spores [3]; Day 15, second period): +190 CFU/ml | Aerobic Bacterial Spores in process, High consistency (4-6 w/w-%) broke tower (aerobic bacterial spores [3]; [8]): 1100 CFU/ml | Aerobic Bacterial Spores in process, Incoming Pulp (aerobic bacterial spores [3]; [8]): 60 CFU/ml | Aerobic Bacterial Spores in process, Low consistency (1-4 w/w-%) broke tower (aerobic bacterial spores [3]; [8]): 610 CFU/ml | ΔSpore content within the broke system (aerobic bacterial spores [3]; Day 19, second period): +490 CFU/ml | Aerobic Bacterial Spores in process, High consistency (4-6 w/w-%) broke tower (aerobic bacterial spores [3]; [9]): 950 CFU/ml | Aerobic Bacterial Spores in process, Low consistency (1-4 w/w-%) broke tower (aerobic bacterial spores [3]; [9]): 850 CFU/ml | ΔSpore content within the broke system (aerobic bacterial spores [3]; Day 25, second period): +100 CFU/ml | spore formation in the broke system (aerobic bacterial spores [3]; second period (Days 15-25)): triggered intensive spore formation | spore quantities in the high consistency broke tower (aerobic bacterial spores [3]; second period (Days 15-25), maximum): up to 1100 CFU/ml | Bacterial Spores in Final Board (aerobic bacterial spores [5]; [7]): 520 CFU/g | Bacterial Spores in Final Board (aerobic bacterial spores [5]; [8]): 5530 CFU/g | Bacterial Spores in Final Board (aerobic bacterial spores [5]; Day 21, second period (Days 15-25)): 9580 CFU/g | Bacterial Spores in Final Board (aerobic bacterial spores [5]; [9]): 3210 CFU/g | spore content in the final board, highest value (aerobic bacterial spores [5]; second period (Days 15-25)): ≤ 9580 CFU/g
